Patent US12187702B2, “Sulfonamideurea compounds” (Inflazome Limited, priority 2018, dated 2025)
pIC50: −log10 of the molar value. Where a name gives a salt, the structure may show the parent alone.

How the values were obtained:
NLRP3 [1] = target: T1, NLRP3 (Homo sapiens, UniProt Q96P20); assay: Human whole blood IL-1β release assay (LPS + nigericin, AlphaLisa); assay type: cell-based; parameters: Plate out 80 μl of whole blood containing 1 μg/ml of LPS; from tissue; host or cells: human whole blood from healthy donors; settings: human whole blood, 1 μg/ml LPS, 10 μM nigericin; IL-1β release; read-out: HWB IC50
Description: For systemic delivery, the ability to inhibit NLRP3 when the compounds are present within the bloodstream is of great importance. For this reason, the NLRP3 inhibitory activity of a number of compounds in human whole blood was investigated in accordance with the following protocol.
Human whole blood in Li-heparin tubes was obtained from healthy donors from a volunteer donor panel. • 1. Plate out 80 μl of whole blood containing 1 μg/ml of LPS in 96-well, clear bottom cell culture plate (Corning #3585) • 2. Add 10 μl compound (8 points half-log dilution with 10 μM top dose) or vehicle (DMSO 0.1% FAC) to the appropriate wells • 3. Incubate for 3 hrs at 37° C., 5% CO2 • 4. Add 10 μl nigericin (Sigma #N7143) (10 μM FAC) to all wells • 5. Incubate for 1 hr at 37° C., 5% CO2 • 6. At the end of the incubation period, spin plates at 300×g for 5 mins to pellet cells and remove 20 μl of supernatant and add to 96-well v-bottom plates for IL-1β analysis (note: these plates containing the supernatants can be stored at −80° C. to be analysed at a later date) • 7. IL-1β was measured according to the manufacturer protocol (Perkin Elmer-AlphaLisa IL-1 Kit AL220F-5000) • 8. IC50 data is fitted to a non-linear regression equation (log inhibitor vs response-variable slope 4-parameters)

NLRP3 [2] = target: T1, NLRP3; assay: THP-1 cells pyroptosis assay (LPS + nigericin, resazurin read-out); assay type: cell-based; parameters: Seed THP-1 cells (25,000 cells/well) containing 1.0 μg/ml LPS; host or cells: THP-1 cells; settings: THP-1 cells, 1 μg/ml LPS, 5 μM nigericin; NLRP3 inhibitory activity; read-out: THP IC50
Description: THP-1 cells (ATCC #TIB-202) were grown in RPMI containing L-glutamine (Gibco #11835) supplemented with 1 mM sodium pyruvate (Sigma #S8636) and penicillin (100 units/ml)/streptomycin (0.1 mg/ml) (Sigma #P4333) in 10% Fetal Bovine Serum (FBS) (Sigma #F0804). The cells were routinely passaged and grown to confluency (˜10^6 cells/ml). On the day of the experiment, THP-1 cells were harvested and resuspended into RPMI medium (without FBS). The cells were then counted and viability (>90%) checked by Trypan blue (Sigma #T8154). Appropriate dilutions were made to give a concentration of 625,000 cells/ml. To this diluted cell solution was added LPS (Sigma #L4524) to give a 1 μg/ml Final Assay Concentration (FAC). 40 μl of the final preparation was aliquoted into each well of a 96-well plate. The plate thus prepared was used for compound screening.
The following method step-by-step assay was followed for compound screening. • 1. Seed THP-1 cells (25,000 cells/well) containing 1.0 μg/ml LPS in 40 μl of RPMI medium (without FBS) in 96-well, black walled, clear bottom cell culture plates coated with poly-D-lysine (VWR #734-0317) • 2. Add 5 μl compound (8 points half-log dilution, with 10 μM top dose) or vehicle (DMSO 0.1% FAC) to the appropriate wells • 3. Incubate for 3 hrs at 37° C., 5% CO2 • 4. Add 5 μl nigericin (Sigma #N7143) (FAC 5 μM) to all wells • 5. Incubate for 1 hr at 37° C., 5% CO2 • 6. At the end of the incubation period, spin plates at 300×g for 3 mins and remove supernatant • 7. Then add 50 μl of resazurin (Sigma #R7017) (FAC 100 μM resazurin in RPMI medium without FBS) and incubate plates for a further 1-2 hrs at 37° C. and 5% CO2 • 8. Plates were read in an Envision reader at Ex 560 nm and Em 590 nm • 9. IC50 data is fitted to a non-linear regression equation (log inhibitor vs response-variable slope 4-parameters)

T1 sequence (Q96P20 whole entry): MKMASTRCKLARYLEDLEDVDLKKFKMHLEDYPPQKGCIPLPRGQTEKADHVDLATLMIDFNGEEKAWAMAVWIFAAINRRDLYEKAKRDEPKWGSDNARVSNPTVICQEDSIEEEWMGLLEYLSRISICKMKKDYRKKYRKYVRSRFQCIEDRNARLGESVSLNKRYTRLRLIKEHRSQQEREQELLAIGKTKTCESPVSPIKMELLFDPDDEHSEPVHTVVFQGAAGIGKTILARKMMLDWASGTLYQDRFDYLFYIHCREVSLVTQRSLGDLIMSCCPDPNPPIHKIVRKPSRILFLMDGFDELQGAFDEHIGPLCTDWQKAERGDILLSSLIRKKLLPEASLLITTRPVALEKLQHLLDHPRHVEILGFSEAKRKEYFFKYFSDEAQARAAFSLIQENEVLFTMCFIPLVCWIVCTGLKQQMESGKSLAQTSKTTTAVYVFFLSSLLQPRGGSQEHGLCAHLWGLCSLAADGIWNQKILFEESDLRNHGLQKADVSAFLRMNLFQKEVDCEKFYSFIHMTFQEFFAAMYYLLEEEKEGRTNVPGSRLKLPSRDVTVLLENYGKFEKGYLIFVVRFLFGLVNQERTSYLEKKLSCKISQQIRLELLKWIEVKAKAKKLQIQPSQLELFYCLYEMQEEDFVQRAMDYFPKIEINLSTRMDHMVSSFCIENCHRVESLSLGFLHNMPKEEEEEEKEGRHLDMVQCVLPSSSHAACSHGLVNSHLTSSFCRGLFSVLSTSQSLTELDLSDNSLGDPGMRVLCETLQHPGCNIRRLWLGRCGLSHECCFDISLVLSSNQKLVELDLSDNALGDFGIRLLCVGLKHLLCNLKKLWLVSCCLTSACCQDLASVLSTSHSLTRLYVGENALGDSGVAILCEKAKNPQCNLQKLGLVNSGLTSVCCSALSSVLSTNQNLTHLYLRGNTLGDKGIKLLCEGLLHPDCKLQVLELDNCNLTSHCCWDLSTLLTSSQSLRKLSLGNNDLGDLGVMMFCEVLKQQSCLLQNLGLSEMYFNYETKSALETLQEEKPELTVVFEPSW

Compound	pIC50 (NLRP3 [1])	pIC50 (NLRP3 [2])
CN1CCCC1CNS(=O)(=O)NC(=O)Nc1c2c(cc3c1CCC3)CCC2 (stereo not shown) [Example 25, 3-(N-((1-Methylpyrrolidin-2-yl)methyl))sulfamoyl)-1-(1,2,3,5,6,7-hexahydro-s-indacen-4-yl)urea, potassium salt]	> 6.30	> 6.00
CC(C)N1CC2CN(S(=O)(=O)NC(=O)Nc3c4c(cc5c3CCC5)CCC4)CC21 (stereo not shown) [Example 87, N-((1,2,3,5,6,7-Hexahydro-s-indacen-4-yl)carbamoyl)-6-isopropyl-3,6-diazabicyclo[3.2.0]heptane-3-sulfonamide, potassium salt]	> 5.30	> 6.30
CC(C)(C)NCCNS(=O)(=O)NC(=O)Nc1c2c(cc3c1CCC3)CCC2 [Example 71, 3-(N-(2-(tert-Butylamino)ethyl)sulfamoyl)-1-(1,2,3,5,6,7-hexahydro-s-indacen-4-yl)urea, potassium salt]	> 6.00	> 6.30
CN1C2CCC1CN(S(=O)(=O)NC(=O)Nc1c3c(cc4c1CCC4)CCC3)C2 [Example 14, N-((1,2,3,5,6,7-Hexahydro-s-indacen-4-yl)carbamoyl)-8-methyl-3,8-diazabicyclo[3.2.1]octane-3-sulfonamide, potassium salt]	> 6.30	> 6.30
CCN(CCN(C)C)S(=O)(=O)NC(=O)Nc1c2c(cc3c1CCC3)CCC2 [Example 39, 3-(N-(2-(Dimethylamino)ethyl)-N-ethylsulfamoyl))-1-(1,2,3,5,6,7-hexahydro-s-indacen-4-yl)urea, potassium salt]	> 6.00	> 6.30
CN1CC[C@H](N(C)S(=O)(=O)NC(=O)Nc2c3c(cc4c2CCC4)CCC3)C1 [Example 76, 3-((S)—N-Methyl-N-(1-methylpyrrolidin-3-yl)sulfamoyl)-1-(1,2,3,5,6,7-hexahydro-s-indacen-4-yl)urea, potassium salt]	> 6.30	> 6.30
CC(C)c1cc(F)cc(-c2ccncc2)c1NC(=O)NS(=O)(=O)N(C)C1CCN(C)C1 (stereo not shown) [Example 108]	> 6.30	> 6.30
CN(C)C1CCCN(S(=O)(=O)NC(=O)Nc2c3c(cc4c2CCC4)CCC3)C1 (stereo not shown) [Example 15, potassium salt]	> 6.30	> 6.30
CN(C)C1CCN(S(=O)(=O)NC(=O)Nc2c3c(cc4c2CCC4)CCC3)C1 (stereo not shown) [Example 9, 3-(Dimethylamino)-N-((1,2,3,5,6,7-hexahydro-s-indacen-4-yl)carbamoyl)pyrrolidine-1-sulfonamide, potassium salt]	> 6.30	> 6.30
CN1CC(NS(=O)(=O)NC(=O)Nc2c3c(cc4c2CCC4)CCC3)C1 [Example 34, 3-(N-(1-Methylazetidin-3-yl))sulfamoyl)-1-(1,2,3,5,6,7-hexahydro-s-indacen-4-yl)urea, potassium salt]	> 6.30	> 6.30
CN(C)CCN(Cc1ccccc1)S(=O)(=O)NC(=O)Nc1c2c(cc3c1CCC3)CCC2 [Example 10, 3-(N-Benzyl-N-(2-(dimethylamino)ethyl)sulfamoyl)-1-(1,2,3,5,6,7-hexahydro-s-indacen-4-yl)urea, potassium salt]	> 5.30	> 5.30
CN1C[C@H]2CN(S(=O)(=O)NC(=O)Nc3c4c(cc5c3CCC5)CCC4)C[C@H]21 [Example 92, (1S,5S)—N-((1,2,3,5,6,7-Hexahydro-s-indacen-4-yl)carbamoyl)-6-methyl-3,6-diazabicyclo[3.2.0]heptane-3-sulfonamide, potassium salt]	> 6.30	> 6.30
CN1CCC1CNS(=O)(=O)NC(=O)Nc1c2c(cc3c1CCC3)CCC2 (stereo not shown) [Example 31, 3-(N-((1-Methylazetidin-2-yl)methyl))sulfamoyl)-1-(1,2,3,5,6,7-hexahydro-s-indacen-4-yl)urea, potassium salt]	> 6.30	> 6.30
CN1CC2CN(S(=O)(=O)NC(=O)Nc3c4c(cc5c3CCC5)CCC4)CC21 (stereo not shown) [Example 86, N-((1,2,3,5,6,7-Hexahydro-s-indacen-4-yl)carbamoyl)-6-methyl-3,6-diazabicyclo[3.2.0]heptane-3-sulfonamide]	> 6.30	> 6.30
O=C(Nc1c2c(cc3c1CCC3)CCC2)NS(=O)(=O)NCCN1CCC1 [Example 35, 3-(N-(2-(Azetidin-1-yl)ethyl)sulfamoyl)-1-(1,2,3,5,6,7-hexahydro-s-indacen-4-yl)urea, potassium salt]	> 6.00	> 5.30
CN1CC(CN(C)S(=O)(=O)NC(=O)Nc2c3c(cc4c2CCC4)CCC3)C1 [Example 84, 3-(N-Methyl-N-((1-methylazetidin-3-yl)methyl)sulfamoyl)-1-(1,2,3,5,6,7-hexahydro-s-indacen-4-yl)urea, potassium salt]	> 6.00	> 6.30
CN1CC2CCC(C1)N2S(=O)(=O)NC(=O)Nc1c2c(cc3c1CCC3)CCC2 [Example 37, N-((1,2,3,5,6,7-Hexahydro-s-indacen-4-yl)carbamoyl)-3-methyl-3,8-diazabicyclo[3.2.1]octane-8-sulfonamide, potassium salt]	> 6.00	> 6.30
COc1cc(-c2c(C)cc3c(c2NC(=O)NS(=O)(=O)N(C)C)CCC3)ccn1 [Example 114, N-((5-(2-Methoxypyridin-4-yl)-6-methyl-2,3-dihydro-1H-inden-4-yl)carbamoyl)(N,N-dimethylsulfamoyl)amide]	> 6.00	> 6.30
CN(C)[C@H]1C[C@H]2CC[C@@H](C1)N2S(=O)(=O)NC(=O)Nc1c2c(cc3c1CCC3)CCC2 [Example 79, (1R,3r,5S)-3-(Dimethylamino)-N-((1,2,3,5,6,7-hexahydro-s-indacen-4-yl)carbamoyl)-8-azabicyclo[3.2.1]octane-8-sulfonamide]	> 6.30	
CC(C)N1[C@@H]2CC[C@H]1C[C@H](NS(=O)(=O)NC(=O)Nc1c3c(cc4c1CCC4)CCC3)C2 [Example 63, (1R,3s,5S)-8-isopropyl-8-azabicyclo[3.2.1]octan-3-(N-((1,2,3,5,6,7-hexahydro-s-indacen-4-yl)carbamoyl)-sulfonamide)]		> 6.00
CC(=O)N(C)CCN(C)S(=O)(=O)NC(=O)Nc1c2c(cc3c1CCC3)CCC2 [Example 41, N-(2-((N-((1,2,3,5,6,7-Hexahydro-s-indacen-4-yl)carbamoyl)sulfamoyl)(methyl)amino)ethyl)-N-methylacetamide, potassium salt]		> 5.30
CN(C)CC1CCCN1S(=O)(=O)NC(=O)Nc1c2c(cc3c1CCC3)CCC2 (stereo not shown) [Example 82, 2-((Dimethylamino)methyl)-N-((1,2,3,5,6,7-hexahydro-s-indacen-4-yl)carbamoyl)pyrrolidine-1-sulfonamide, potassium salt]		> 5.30
CC(C)c1cc(F)cc(-c2ccnc(C#N)c2)c1NC(=O)NS(=O)(=O)N(C)C1CCN(C)C1 (stereo not shown) [Example 101]		> 5.30
CCN(CC)[C@@H]1C[C@H]2CC[C@@H](C1)N2S(=O)(=O)NC(=O)Nc1c2c(cc3c1CCC3)CCC2 [Example 78, (1R,3s,5S)-3-(Diethylamino)-N-((1,2,3,5,6,7-hexahydro-s-indacen-4-yl)carbamoyl)-8-azabicyclo[3.2.1]octane-8-sulfonamide]		> 5.30
CN(C)CCN(CCN(C)C)S(=O)(=O)NC(=O)Nc1c2c(cc3c1CCC3)CCC2 [Example 51, 3-(N,N-Bis(2-(dimethylamino)ethyl)sulfamoyl)-1-(1,2,3,5,6,7-hexahydro-s-indacen-4-yl)urea, potassium salt]		> 5.00
